Values of other authors in patent publication US20080262086A1, “SUBSTITUTED ANTHRANILIC ACIDS” (AUSPEX PHARMACEUTICALS, INC., priority 2007, published 2008).

Key:
[1] = short half-life of bumetanide, background
[2] = system: reabsorption of sodium, potassium, and chloride; details: times more potent than furosemide

- half-life [1]: 1 to 1.5 h
SMILES: CCCCNc1cc(C(=O)O)cc(S(N)(=O)=O)c1Oc1ccccc1 [Bumetanide, 3-Butylamino-4-phenoxy-5-sulfamoyl-benzoic acid]
- potency relative to furosemide [2]: approximately 40 times
